Measurements taken from US10287267B2, “Isoquinolin-3-yl carboxamides and preparation and use thereof” (Samumed, LLC, priority 2016, dated 2019).

Tests used:
[1] = test system: α-smooth muscle actin (αSMA) positive LL29 cells; assay: Inhibition of fibrotic process: αSMA in TGF-β1 treated primary human fibroblasts from IPF patients; type: cell-based; conditions: Homo sapiens, Fibroblast; for EC50: 96 h, Table 8, LL29 fibroblasts from IPF patients, TGF-β1 20 ng/mL, 4 days, dose-response 10 μM to 0.94 nM; for inhibition at 10 µM: read-out: percent value in parentheses beside EC50 >10 μM;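 as to all read-outs here: controls were TGF-β1 stimulated wells with DMSO vehicle (positive) and cells given DMSO alone (negative), cultured in F12 medium with 1% fetal bovine serum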
recombinant GSK3β kinase = recombinant GSK3β kinase (Homo sapiens (Human), UniProt P49841); assay: GSK3β kinase assay (Ser/Thr 09 peptide Z-lyte FRET); type: biochemical; conditions: 46 μM ATP, 1 h room temperature;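 also: kinase activity read as coumarin to fluorescein emission ratio, 11-point threefold dilutions from 10 µM to 0.0003 µM in duplicate, unphosphorylated and phosphorylated peptide as 0% and 100% controls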
IL-6 = IL-6 inhibition in LPS-stimulated human peripheral blood mononuclear cells (HTRF); type: cell-based; conditions: Homo sapiens, PBMC; for EC50: Table 9, huPBMCs, LPS 50 ng/mL, 22 hours, dose-response starting from 10 μM;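 as to all read-outs here: IL-6 detected by HTRF with an XL665- and Cryptate-labelled anti-IL-6 antibody pair, samples run in duplicate, EC50 obtained from a four-parameter Levenberg-Marquardt curve fit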
Description: After 22 hour incubation, a mixture of anti-IL6 XL665 and anti-IL-6 Cryptate diluted in reconstitution buffer (Catalog #62IL6PEC, Cisbio Inc., Bedford, Mass.) was added to each well. […] All samples were processed in duplicate. […] EC50 was determined using software generated by Dotmatics Limited (Windhill Bishops Stortford Herts, UK) using the Levenberg-Marquardt 4 parameter fitting procedure with finite different gradients.

[2] = test system: Tau phosphorylation at Ser396 (pSer396); assay: Tau phosphorylation assay (pSer396 ELISA / western blot) in SH-SY5Y cells; type: cell-based, human; conditions: Homo sapiens; SH-SY5Y cells, overnight (16-18 h) exposure; read-out: pSer396 Tau EC50;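 also: EC50 for reduction of Tau pSer396 in lysed cells, measured by colorimetric ELISA or chemiluminescent western blot, both using the same pSer396 antibody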
[3] = molecular target: recombinant DYRK1A kinase (Homo sapiens (Human), UniProt Q13627); assay: DYRK1A kinase assay (Ser/Thr 18 peptide Z-lyte FRET); type: biochemical; conditions: 30 μM ATP, 1 h room temperature;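 also: Read-out is the coumarin to fluorescein emission ratio, referenced to unphosphorylated (0%) and phosphorylated (100%) Ser/Thr 18 peptide controls, values from dose-response curves by non-linear regression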
[4] = test system: Wnt pathway (Sp5-Luc reporter, TCF/LEF binding sites) in SW480 colon carcinoma cells; assay: Screening assay for Wnt activity: Sp5-Luc reporter gene assay; type: cell-based, human; conditions: Homo sapiens; Sp5-Luc reporter, SW480 cells, 36 to 48 hours;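 also: firefly luciferase luminescence read in stably transduced SW480 cells carrying the Sp5 promoter reporter with eight TCF/LEF sites, compounds given in 0.1% DMSO final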
Description: The screening assay for Wnt activity is described as follows.
Following incubation, 15 μl of BriteLite Plus luminescence reagent (Perkin Elmer) was added to each well of the 384-well assay plates. The plates were placed on an orbital shaker for 2 min and then luminescence was quantified using the Envision (Perkin Elmer) plate reader.

[5] = test system: SW480 colon carcinoma cells; assay: Cell viability assay (CellTiter-Glo); type: cell-based, human; conditions: Homo sapiens, 96 h; SW480 cells, CellTiter-Glo, four days incubation

Sequence of recombinant GSK3β kinase (P49841 whole entry): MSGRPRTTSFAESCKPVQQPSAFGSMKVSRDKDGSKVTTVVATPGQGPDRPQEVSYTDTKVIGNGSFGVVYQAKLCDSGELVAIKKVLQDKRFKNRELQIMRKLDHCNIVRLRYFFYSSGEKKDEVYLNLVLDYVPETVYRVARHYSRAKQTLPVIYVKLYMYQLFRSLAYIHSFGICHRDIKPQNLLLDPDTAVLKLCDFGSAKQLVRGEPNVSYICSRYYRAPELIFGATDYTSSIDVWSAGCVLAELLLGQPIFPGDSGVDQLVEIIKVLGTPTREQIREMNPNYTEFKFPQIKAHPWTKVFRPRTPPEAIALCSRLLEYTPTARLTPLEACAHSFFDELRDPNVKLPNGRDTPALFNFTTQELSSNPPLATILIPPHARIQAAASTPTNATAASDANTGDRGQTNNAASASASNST

| Compound | EC50 [1] | EC50 (recombinant GSK3β kinase) | EC50 (IL-6) | EC50 [2] | EC50 [3] | EC50 [4] | EC50 [5] | inhibition at 10 µM [1] | inhibition at 10 µM (IL-6; read-out: percent value in parentheses beside EC50 >10 μM) |
| --- | --- | --- | --- | --- | --- | --- | --- | --- | --- |
| Cn1cc(-c2ccc3cnc(NC(=O)C4CNC4)cc3c2)cn1 [Compound 16, N-(6-(1-Methyl-1H-pyrazol-4-yl)isoquinolin-3-yl)azetidine-3-carboxamide] | 1270 nM | 24 nM | 2170 nM | > 10000 nM | 3.9 nM | > 10000 nM | 7840 nM |  |  |
| Cn1cc(-c2ccc3cnc(NC(=O)CN4CC[C@H](F)C4)cc3c2)cn1 [Compound 69, (S)-2-(3-Fluoropyrrolidin-1-yl)-N-(6-(1-methyl-1H-pyrazol-4-yl)isoquinolin-3-yl)acetamide] | 394 nM | 13 nM | 2160 nM | 383 nM | 6.2 nM | 3700 nM | 3930 nM |  |  |
| Cn1cc(-c2ccc3cnc(NC(=O)[C@@H]4CCCO4)cc3c2)cn1 [Compound 71, (S)—N-(6-(1-Methyl-1H-pyrazol-4-yl)isoquinolin-3-yl)tetrahydrofuran-2-carboxamide] | > 10000 nM | 62 nM | 6730 nM | 1510 nM | 13.6 nM | 3900 nM | 8100 nM | 33.4% |  |
| CC(C)N1CCC(C(=O)Nc2cc3cc(-c4cnn(C)c4)ccc3cn2)CC1 [Compound 75, 1-Isopropyl-N-(6-(1-methyl-1H-pyrazol-4-yl)isoquinolin-3-yl)piperidine-4-carboxamide] | 148 nM | 64 nM | 806 nM | 227 nM | 2.6 nM | 520 nM | 1320 nM |  |  |
| Cn1cc(-c2ccc3cnc(NC(=O)C4CCN(C5COC5)CC4)cc3c2)cn1 [Compound 86, N-(6-(1-methyl-1H-pyrazol-4-yl)isoquinolin-3-yl)-1-(oxetan-3-yl)piperidine-4-carboxamide] | > 10000 nM | 48 nM | 1770 nM | 682 nM | 2.5 nM | 4000 nM | > 10000 nM | 14.6% |  |
| Cn1cc(-c2ccc3cnc(NC(=O)C4CCN(CC5(C)COC5)CC4)cc3c2)cn1 [Compound 87, N-(6-(1-Methyl-1H-pyrazol-4-yl)isoquinolin-3-yl)-1-((3-methyloxetan-3-yl)methyl)piperidine-4-carboxamide] | 81 nM | 32 nM | 2940 nM | 414 nM | 3.3 nM | 1000 nM | 3160 nM |  |  |
| COCCN1CCC(C(=O)Nc2cc3cc(-c4cnn(C)c4)ccc3cn2)CC1 [Compound 89, 1-(2-Methoxyethyl)-N-(6-(1-methyl-1H-pyrazol-4-yl)isoquinolin-3-yl) piperidine-4-carboxamide] | 137 nM | 64 nM | 1140 nM | 364 nM | 2.7 nM | 765 nM | 738 nM |  |  |
| CC(C)OCCN1CCC(C(=O)Nc2cc3cc(-c4cnn(C)c4)ccc3cn2)CC1 [Compound 90, 1-(2-Isopropoxyethyl)-N-(6-(1-methyl-1H-pyrazol-4-yl)isoquinolin-3-yl) piperidine-4-carboxamide] | 96 nM | 42 nM | 1080 nM | 302 nM | 3 nM | 1100 nM | 1170 nM |  |  |
| Cn1cc(-c2ccc3cnc(NC(=O)C4(F)CCNCC4)cc3c2)cn1 [Compound 91, 4-Fluoro-N-(6-(1-methyl-1H-pyrazol-4-yl)isoquinolin-3-yl)piperidine-4-carboxamide] | > 10000 nM | 838 nM | > 10000 nM | 4700 nM | 10.5 nM | > 10000 nM | 9590 nM | 17.3% | 40% |
